Article PMC8222254, “Self-assembly of an anion receptor with metal-dependent kinase inhibition and potent in vitro anti-cancer properties” (Nature Communications, 2021)
Values joined by “and” are separate entries in the source; they are usually repeats but may differ in a detail not shown here. Equal values may be shown once.

Tests used:
Assay in all cases: Kinase inhibition screen, cell-free 33P ATP assay at 10 μM
Type in all cases: biochemical
[1] = biological target: T1, 140 purified human kinases (Homo sapiens, UniProt O15530)
T1 sequence (O15530 1-556): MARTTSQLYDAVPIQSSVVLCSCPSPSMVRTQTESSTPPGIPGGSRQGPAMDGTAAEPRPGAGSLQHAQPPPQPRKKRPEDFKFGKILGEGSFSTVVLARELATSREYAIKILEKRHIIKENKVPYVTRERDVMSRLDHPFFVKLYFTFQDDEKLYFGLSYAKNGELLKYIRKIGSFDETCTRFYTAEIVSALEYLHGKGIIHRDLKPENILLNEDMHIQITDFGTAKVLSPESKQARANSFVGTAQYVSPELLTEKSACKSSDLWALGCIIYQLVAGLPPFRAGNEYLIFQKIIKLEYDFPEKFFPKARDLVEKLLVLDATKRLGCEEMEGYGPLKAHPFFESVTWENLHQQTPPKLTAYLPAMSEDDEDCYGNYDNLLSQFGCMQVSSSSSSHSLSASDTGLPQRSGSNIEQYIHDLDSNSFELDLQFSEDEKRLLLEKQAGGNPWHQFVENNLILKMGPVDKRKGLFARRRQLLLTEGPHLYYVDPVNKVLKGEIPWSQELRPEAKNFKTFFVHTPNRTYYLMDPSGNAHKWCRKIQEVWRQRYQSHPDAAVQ
Method in brief: (§1)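 Radiometric ^33P ATP cell-free format with purified enzymes; both complexes run at 10 μM in duplicate, results plotted on a kinome map via HGNC symbols.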

[2] = biological target: T2, 140 purified human kinases (Homo sapiens, UniProt O60285)
T2 sequence (O60285 1-661): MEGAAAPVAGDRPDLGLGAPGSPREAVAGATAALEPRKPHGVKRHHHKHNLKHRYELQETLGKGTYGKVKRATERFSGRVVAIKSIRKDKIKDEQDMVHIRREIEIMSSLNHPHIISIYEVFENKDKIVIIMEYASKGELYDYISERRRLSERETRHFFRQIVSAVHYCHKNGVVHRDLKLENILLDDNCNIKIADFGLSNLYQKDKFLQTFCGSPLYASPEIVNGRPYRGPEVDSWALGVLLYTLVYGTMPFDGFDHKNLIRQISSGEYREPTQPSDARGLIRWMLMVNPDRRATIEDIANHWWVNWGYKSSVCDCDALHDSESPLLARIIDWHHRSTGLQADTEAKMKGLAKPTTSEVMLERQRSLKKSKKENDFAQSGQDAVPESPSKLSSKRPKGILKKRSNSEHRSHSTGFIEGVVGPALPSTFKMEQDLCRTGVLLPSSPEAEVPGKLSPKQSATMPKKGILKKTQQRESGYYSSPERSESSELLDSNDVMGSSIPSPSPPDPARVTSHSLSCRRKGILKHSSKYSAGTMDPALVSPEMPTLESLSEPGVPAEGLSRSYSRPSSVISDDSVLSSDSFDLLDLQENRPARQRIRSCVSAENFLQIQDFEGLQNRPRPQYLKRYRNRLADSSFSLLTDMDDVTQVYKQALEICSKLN
Method in brief: as §1

[3] = biological target: 140 purified human kinases (Homo sapiens, UniProt O96017)
Sequence of 140 purified human kinases (Homo sapiens, UniProt O96017) (O96017 whole entry): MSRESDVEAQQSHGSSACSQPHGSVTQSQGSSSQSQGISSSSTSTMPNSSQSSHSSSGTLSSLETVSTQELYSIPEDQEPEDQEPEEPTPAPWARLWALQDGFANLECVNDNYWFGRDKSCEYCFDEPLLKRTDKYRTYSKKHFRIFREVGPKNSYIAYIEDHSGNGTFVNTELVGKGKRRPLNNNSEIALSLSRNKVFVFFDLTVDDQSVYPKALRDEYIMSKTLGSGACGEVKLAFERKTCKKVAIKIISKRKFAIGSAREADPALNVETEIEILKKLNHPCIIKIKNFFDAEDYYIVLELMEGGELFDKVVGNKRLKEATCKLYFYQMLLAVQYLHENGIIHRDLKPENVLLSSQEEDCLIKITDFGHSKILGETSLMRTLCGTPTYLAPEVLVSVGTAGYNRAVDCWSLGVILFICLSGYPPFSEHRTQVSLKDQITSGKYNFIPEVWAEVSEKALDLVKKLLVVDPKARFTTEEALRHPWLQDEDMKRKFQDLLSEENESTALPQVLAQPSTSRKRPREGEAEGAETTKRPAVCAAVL
Method in brief: as §1

[4] = biological target: 140 purified human kinases (Homo sapiens, UniProt Q8N4C8)
Sequence of 140 purified human kinases (Homo sapiens, UniProt Q8N4C8) (Q8N4C8 whole entry): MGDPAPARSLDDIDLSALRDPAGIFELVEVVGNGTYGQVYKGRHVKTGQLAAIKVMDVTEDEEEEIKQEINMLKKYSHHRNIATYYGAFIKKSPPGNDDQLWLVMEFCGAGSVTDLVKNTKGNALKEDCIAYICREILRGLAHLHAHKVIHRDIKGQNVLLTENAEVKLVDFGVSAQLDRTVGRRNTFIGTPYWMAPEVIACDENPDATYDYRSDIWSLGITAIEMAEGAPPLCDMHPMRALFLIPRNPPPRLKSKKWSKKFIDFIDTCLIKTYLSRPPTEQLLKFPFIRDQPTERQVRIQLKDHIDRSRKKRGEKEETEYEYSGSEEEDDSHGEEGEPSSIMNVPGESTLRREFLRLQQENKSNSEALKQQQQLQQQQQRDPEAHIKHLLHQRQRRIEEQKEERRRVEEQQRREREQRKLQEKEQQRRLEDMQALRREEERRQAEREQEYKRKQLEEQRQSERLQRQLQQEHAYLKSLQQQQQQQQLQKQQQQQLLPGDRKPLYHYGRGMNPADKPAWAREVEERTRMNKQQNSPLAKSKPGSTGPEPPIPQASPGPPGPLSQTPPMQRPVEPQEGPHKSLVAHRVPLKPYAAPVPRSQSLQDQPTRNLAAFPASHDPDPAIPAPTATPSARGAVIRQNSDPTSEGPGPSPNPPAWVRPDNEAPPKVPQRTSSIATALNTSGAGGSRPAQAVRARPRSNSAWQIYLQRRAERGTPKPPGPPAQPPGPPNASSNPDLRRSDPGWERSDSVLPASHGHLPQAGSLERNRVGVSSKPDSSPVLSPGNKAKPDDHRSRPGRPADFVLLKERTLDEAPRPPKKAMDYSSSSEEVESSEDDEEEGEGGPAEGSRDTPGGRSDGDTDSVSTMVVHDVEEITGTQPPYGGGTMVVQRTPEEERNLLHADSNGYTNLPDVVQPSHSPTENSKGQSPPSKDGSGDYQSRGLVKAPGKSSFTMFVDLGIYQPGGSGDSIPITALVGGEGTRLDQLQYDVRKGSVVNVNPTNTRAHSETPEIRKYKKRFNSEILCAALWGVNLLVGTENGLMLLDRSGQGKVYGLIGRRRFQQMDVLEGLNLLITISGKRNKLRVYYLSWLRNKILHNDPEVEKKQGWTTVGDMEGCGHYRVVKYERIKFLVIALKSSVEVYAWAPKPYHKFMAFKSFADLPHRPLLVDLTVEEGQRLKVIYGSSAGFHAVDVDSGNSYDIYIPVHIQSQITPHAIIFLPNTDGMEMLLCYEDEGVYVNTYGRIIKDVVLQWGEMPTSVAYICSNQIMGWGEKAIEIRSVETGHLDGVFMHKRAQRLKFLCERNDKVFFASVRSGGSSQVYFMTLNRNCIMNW
Method in brief: as §1

[5] = biological target: 140 purified human kinases (Homo sapiens, UniProt Q7KZI7)
Sequence of 140 purified human kinases (Homo sapiens, UniProt Q7KZI7) (Q7KZI7 whole entry): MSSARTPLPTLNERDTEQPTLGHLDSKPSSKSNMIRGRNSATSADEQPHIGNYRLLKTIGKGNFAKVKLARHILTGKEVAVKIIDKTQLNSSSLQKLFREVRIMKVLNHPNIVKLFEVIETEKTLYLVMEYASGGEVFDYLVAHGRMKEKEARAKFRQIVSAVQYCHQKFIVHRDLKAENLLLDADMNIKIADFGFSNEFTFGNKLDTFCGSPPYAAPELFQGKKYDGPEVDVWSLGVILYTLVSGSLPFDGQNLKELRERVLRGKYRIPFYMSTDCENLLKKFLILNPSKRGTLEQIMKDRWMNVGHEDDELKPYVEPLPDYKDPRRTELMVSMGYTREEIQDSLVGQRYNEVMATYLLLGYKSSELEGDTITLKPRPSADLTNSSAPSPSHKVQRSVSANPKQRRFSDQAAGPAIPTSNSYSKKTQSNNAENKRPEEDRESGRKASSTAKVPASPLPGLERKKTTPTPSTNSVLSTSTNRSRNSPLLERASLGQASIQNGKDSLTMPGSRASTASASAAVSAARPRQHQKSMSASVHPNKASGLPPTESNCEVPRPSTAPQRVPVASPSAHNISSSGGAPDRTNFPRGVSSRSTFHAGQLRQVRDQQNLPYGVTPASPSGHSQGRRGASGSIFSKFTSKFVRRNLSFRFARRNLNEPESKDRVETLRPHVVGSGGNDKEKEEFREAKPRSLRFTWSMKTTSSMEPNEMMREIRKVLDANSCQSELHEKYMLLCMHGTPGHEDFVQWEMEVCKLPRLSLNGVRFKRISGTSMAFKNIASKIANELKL
Method in brief: as §1

In the case of `[Cu+2].[Cu+2].[Cu+2].c1ccc(-c2csc(NCCN(CCNc3nc(-c4ccccn4)cs3)CCNc3nc(-c4ccccn4)cs3)n2)nc1.c1ccc(-c2csc(NCCN(CCNc3nc(-c4ccccn4)cs3)CCNc3nc(-c4ccccn4)cs3)n2)nc1` [[L2Cu3]6+], the “% Activation, Mean value” ([1]; PDK1) is reported as 6.45%, the “% Inhibition Run 1” value ([1]; PDK1) is reported as 12.4% and the “% Inhibition Run 2” value ([1]; PDK1) is reported as -25.3%. For the same compound, the “% Inhibition, Mean” value ([1]; PDK1) was -6.45%, the mean % activity ([1]; PDK1) was 106% and the “% activity” value ([1]; PDK1, Run 1) was 87.6%. The “% activity” value ([1]; PDK1, Run 2) was 125.3%, the “% Inhibition Run 1” value ([2]; NUAK1) was 93.9% and the “% Inhibition Run 2” value ([2]; NUAK1) was 92.9%. The “% Inhibition, Mean” value ([2]; NUAK1) was 93%, the mean % activity ([2]; NUAK1) was 6.6% and the “% activity” value ([2]; NUAK1, Run 1) was 6.1%. For the same compound, the “% activity” value ([2]; NUAK1, Run 2) was 7.1%, the “% Activity inhibition Mean” value ([2]; NUAK1, 10 µM) was 93.4% and the “% Activity inhibition Run 1” value ([2]; NUAK1, 10 µM) was 93.9%. For the same compound, the “% Activity inhibition Run 2” value ([2]; NUAK1, 10 µM) was 92.9%, the “% Activity remaining Run 1” value ([2]; NUAK1, 10 µM) was 6.10% and the “% Activity remaining Run 2” value ([2]; NUAK1, 10 µM) was 7.10%. For the same compound, the “% Inhibition Run 1” value ([3]; CHK2) was 86.3%, the “% Inhibition Run 2” value ([3]; CHK2) was 76.4% and the “% Inhibition, Mean” value ([3]; CHK2) was 81%. For the same compound, the mean % activity ([3]; CHK2) was 19%, the “% activity” value ([3]; CHK2, Run 1) was 13.7% and the “% activity” value ([3]; CHK2, Run 2) was 23.6%. For the same compound, the “% Inhibition Run 1” value ([4]; MINK1) was 70%, the “% Inhibition Run 2” value ([4]; MINK1) was 78.2% and the “% Inhibition, Mean” value ([4]; MINK1) was 74%. The mean % activity ([4]; MINK1) was 26%, the “% activity” value ([4]; MINK1, Run 1) was 30% and the “% activity” value ([4]; MINK1, Run 2) was 21.8%. The “% Inhibition Run 1” value ([5]; MARK2) was 29.8%, the “% Inhibition Run 2” value ([5]; MARK2) was 21.6% and the “% Inhibition, Mean” value ([5]; MARK2) was 26%. The mean % activity ([5]; MARK2) was 74%, the “% activity” value ([5]; MARK2, Run 1) was 70.2% and the “% activity” value ([5]; MARK2, Run 2) was 78.4%.

`CC(=O)[O-].CC(=O)[O-].CC(=O)[O-].CC(=O)[O-].CC(=O)[O-].CC(=O)[O-].[Zn+2].[Zn+2].[Zn+2].c1ccc(-c2csc(NCCN(CCNc3nc(-c4ccccn4)cs3)CCNc3nc(-c4ccccn4)cs3)n2)nc1.c1ccc(-c2csc(NCCN(CCNc3nc(-c4ccccn4)cs3)CCNc3nc(-c4ccccn4)cs3)n2)nc1` [[L2Zn3]6+] was tested, and the “% Activation, Mean value” ([1]; PDK1) was 46%, the “% Inhibition, Mean” value ([1]; PDK1) was -46% and the mean % activity ([1]; PDK1) was 146%. For the same compound, the “% Activity Run 1” value ([1]; PDK1, 10 µM) was 131.0%, the “% Activity Run 2” value ([1]; PDK1, 10 µM) was 160.0% and the “% activity” value ([1]; PDK1, duplicate runs) was 131% and 160%. The “% Inhibition, Mean” value ([2]; NUAK1) was 61%, the “% Inhibition, Run 1 / Run 2” value ([2]; NUAK1) was 64% and 59% and the mean % activity ([2]; NUAK1) was 39%. For the same compound, the “% activity” value ([2]; NUAK1, duplicate runs) was 36% and 41%, the “% Inhibition, Mean” value ([3]; CHK2) was 22% and the mean % activity ([3]; CHK2) was 78%. The “% activity” value ([3]; CHK2, duplicate runs) was 64% and 92%, the “% Inhibition, Mean” value ([4]; MINK1) was 67% and the “% Inhibition, Run 1 / Run 2” value ([4]; MINK1) was 72% and 62%. The mean % activity ([4]; MINK1) was 33%, the “% activity” value ([4]; MINK1, duplicate runs) was 28% and 38% and the “% Inhibition, Mean” value ([5]; MARK2) was 34%. The “% Inhibition, Run 1 / Run 2” value ([5]; MARK2) was 45% and 24%, the mean % activity ([5]; MARK2) was 66% and the “% activity” value ([5]; MARK2, duplicate runs) was 56% and 76%.
